{"source": "patent US4455290A", "about": "“Inhibition of fibrin polymerization by a peptide isolated from fibrin Fragment D1” (Research Corporation, priority 1981, dated 1984)", "key": {"thrombin fibrin monomer": {"biological_target": "T1, thrombin fibrin monomer (Homo sapiens, UniProt P02671+P02675+P02679)", "T1 construct": "Thrombin cleaves the bonds Aα16 Arg-17 Gly and Bβ14 Arg-15 Gly, releasing two molecules of fibrinopeptide A and two molecules of fibrinopeptide B; made in house; host or cells: not recombinant: made from fibrinogen by treatment with thrombin", "T1 sequence (P02671 36-629 isoform P02671-2)": "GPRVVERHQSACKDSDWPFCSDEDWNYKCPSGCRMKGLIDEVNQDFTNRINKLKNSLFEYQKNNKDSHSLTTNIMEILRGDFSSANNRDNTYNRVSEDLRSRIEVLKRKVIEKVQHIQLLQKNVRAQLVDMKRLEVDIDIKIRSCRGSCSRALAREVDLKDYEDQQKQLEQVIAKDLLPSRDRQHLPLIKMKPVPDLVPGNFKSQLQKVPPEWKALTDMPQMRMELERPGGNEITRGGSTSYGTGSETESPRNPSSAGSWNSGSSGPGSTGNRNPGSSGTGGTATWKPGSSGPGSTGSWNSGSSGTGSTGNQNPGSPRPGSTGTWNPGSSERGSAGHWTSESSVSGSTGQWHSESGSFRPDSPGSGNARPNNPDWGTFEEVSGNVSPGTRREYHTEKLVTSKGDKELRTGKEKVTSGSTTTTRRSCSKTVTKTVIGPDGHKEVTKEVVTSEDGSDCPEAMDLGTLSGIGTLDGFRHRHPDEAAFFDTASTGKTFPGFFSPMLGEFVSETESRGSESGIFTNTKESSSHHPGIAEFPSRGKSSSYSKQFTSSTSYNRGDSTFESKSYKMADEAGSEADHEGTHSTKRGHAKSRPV", "T1 sequence (P02675 45-491)": "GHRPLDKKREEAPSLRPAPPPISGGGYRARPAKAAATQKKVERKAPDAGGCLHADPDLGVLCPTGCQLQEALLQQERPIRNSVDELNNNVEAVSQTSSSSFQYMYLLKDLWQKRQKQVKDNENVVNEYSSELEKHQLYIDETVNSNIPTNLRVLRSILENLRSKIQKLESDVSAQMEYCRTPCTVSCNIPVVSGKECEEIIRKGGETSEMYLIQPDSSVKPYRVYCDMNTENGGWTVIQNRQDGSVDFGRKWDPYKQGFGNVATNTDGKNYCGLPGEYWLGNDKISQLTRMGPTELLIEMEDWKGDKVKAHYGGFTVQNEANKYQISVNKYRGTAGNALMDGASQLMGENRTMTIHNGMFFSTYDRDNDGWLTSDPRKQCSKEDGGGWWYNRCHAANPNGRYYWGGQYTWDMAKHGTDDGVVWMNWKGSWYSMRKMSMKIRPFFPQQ", "T1 sequence (P02679 27-437 isoform P02679-2)": "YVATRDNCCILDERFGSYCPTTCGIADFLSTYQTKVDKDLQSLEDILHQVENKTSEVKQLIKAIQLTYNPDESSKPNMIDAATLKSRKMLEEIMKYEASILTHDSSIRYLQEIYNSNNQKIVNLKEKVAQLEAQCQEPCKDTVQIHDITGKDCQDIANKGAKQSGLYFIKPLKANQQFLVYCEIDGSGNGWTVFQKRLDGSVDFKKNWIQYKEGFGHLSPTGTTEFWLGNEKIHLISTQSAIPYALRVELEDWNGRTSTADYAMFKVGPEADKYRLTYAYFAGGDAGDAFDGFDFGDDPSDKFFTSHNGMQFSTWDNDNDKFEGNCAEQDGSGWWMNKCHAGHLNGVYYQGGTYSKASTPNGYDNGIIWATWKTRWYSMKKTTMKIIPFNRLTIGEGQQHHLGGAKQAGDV", "experiment": "Inhibition of fibrin monomer polymerization (absorbance at 350 nm), thrombin fibrin monomer", "format": "biochemical", "conditions": "molar excess of D1 Peptide to fibrin monomer of 100-1000 fold; Sephadex gel equilibrium system; kind of fibrin monomer not stated", "protocol": "Fibrin monomer was prepared according to the method of Belitser et al, Biochem. Biophys. Acta 154, 367-375 (1968) using either thrombin or batroxobin (an enzyme from the venom of Bothrops atrox). The polymerization of fibrin monomer which was formed by batroxobin (lacking fibrinopeptide A) or by thrombin (lacking fibrinopeptides A and B) was inhibited by D1 Peptide. Polymerization was measured spectrophotometrically at 350 nm as has been described in Budzynski, Biochem. Biophys. Acta 584, 284-287 (1979). […] At zero time the recorder was started and 0.01 ml of fibrin monomer (1.5 mg/ml in 0.02M acetic acid) was added, the cells were inverted, and the increase in absorbance at 350 nm was measured continuously for 15 min or until plateau levels were reached. For batroxobin fibrin monomer 0.15 ml of buffer or buffer containing D1 Peptide was mixed with 0.05 ml of batroxobin fibrin monomer (1.5 mg/ml in 0.02M acetic acid). The initial rate of polymerization was calculated from the slope of the steepest part of the curve and expressed as the increase in absorbance per min (A350 ·min^-1)."}, "bovine serum albumin": {"biological_target": "bovine serum albumin (Bos taurus, UniProt P02769)", "sequence (P02769 25-607)": "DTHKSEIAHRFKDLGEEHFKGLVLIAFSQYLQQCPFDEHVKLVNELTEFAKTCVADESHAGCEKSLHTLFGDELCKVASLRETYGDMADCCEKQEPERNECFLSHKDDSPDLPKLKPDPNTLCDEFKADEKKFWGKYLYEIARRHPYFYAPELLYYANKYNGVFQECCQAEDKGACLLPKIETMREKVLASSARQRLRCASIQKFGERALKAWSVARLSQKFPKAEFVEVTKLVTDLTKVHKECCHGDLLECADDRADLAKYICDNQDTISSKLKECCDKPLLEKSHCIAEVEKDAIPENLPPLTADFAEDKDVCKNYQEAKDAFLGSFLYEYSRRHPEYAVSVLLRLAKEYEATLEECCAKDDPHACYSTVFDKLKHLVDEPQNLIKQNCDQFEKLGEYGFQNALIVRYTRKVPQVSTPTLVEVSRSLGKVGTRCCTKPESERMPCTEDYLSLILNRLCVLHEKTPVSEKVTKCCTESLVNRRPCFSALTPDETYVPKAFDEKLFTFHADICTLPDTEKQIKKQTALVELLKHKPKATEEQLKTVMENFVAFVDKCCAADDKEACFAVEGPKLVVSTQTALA", "experiment": "Equilibrium binding of 125-I D1 Peptide, bovine serum albumin", "text": "Acta 133, 376-379 (1979)."}, "fibrinogen": {"biological_target": "T2, fibrinogen (Homo sapiens, UniProt P02671+P02675+P02679)", "T2 sequence (P02671 36-629 isoform P02671-2)": "T1 sequence (P02671 36-629 isoform P02671-2)", "T2 sequence (P02675 45-491)": "T1 sequence (P02675 45-491)", "T2 sequence (P02679 27-437 isoform P02679-2)": "T1 sequence (P02679 27-437 isoform P02679-2)", "experiment": "Delay of onset of fibrin polymerization, fibrinogen in the presence of thrombin", "format": "biochemical", "conditions": "1:1 ratio of D1 Peptide to fibrinogen in the presence of thrombin"}, "[1]": {"experiment": "Elimination from the blood", "format": "in vivo", "conditions": "no method described"}}, "note": "Peptide text beside a SMILES is read from it."}
{"smiles": "CC[C@H](C)[C@H](NC(=O)[C@H](CCCCN)NC(=O)[C@H](CCSC)NC(=O)[C@@H](NC(=O)[C@@H](NC(=O)[C@H](CCCCN)NC(=O)[C@H](CCCCN)NC(=O)[C@H](CCSC)NC(=O)[C@H](CO)NC(=O)[C@H](Cc1ccc(O)cc1)NC(=O)[C@H](Cc1c[nH]c2ccccc12)NC(=O)[C@H](CCCNC(=N)N)NC(=O)[C@@H](N)[C@@H](C)O)[C@@H](C)O)[C@@H](C)O)C(=O)N[C@H](C(=O)N1CCC[C@H]1C(=O)N[C@@H](Cc1ccccc1)C(=O)N[C@@H](CC(N)=O)C(=O)N[C@@H](CCCNC(=N)N)C(=O)N[C@@H](CC(C)C)C(=O)N[C@H](C(=O)N[C@H](C(=O)NCC(=O)N[C@@H](CCC(=O)O)C(=O)NCC(=O)N[C@@H](CCC(N)=O)C(=O)N[C@@H](CCC(N)=O)C(=O)N[C@@H](Cc1c[nH]cn1)C(=O)N[C@@H](Cc1c[nH]cn1)C(=O)N[C@@H](CC(C)C)C(=O)NCC(=O)NCC(=O)N[C@@H](C)C(=O)N[C@@H](CCCCN)C(=O)N[C@@H](CCC(N)=O)C(=O)N[C@@H](C)C(=O)NCC(=O)N[C@@H](CC(=O)O)C(=O)N[C@H](C(=O)O)C(C)C)[C@@H](C)CC)[C@@H](C)O)[C@@H](C)CC", "note": "[D1 Peptide] (H-TRWYSMKKTTMKIIPFNRLTIGEGQQHHLGGAKQAGDV-OH)", "values": [{"measurement": "lag time in the fibrin monomer polymerization", "setting": "thrombin fibrin monomer", "result": "more than 30 min"}, {"measurement": "binding to bovine serum albumin", "setting": "bovine serum albumin", "result": "no measurable binding"}, {"measurement": "delay of the onset of fibrin polymerization", "setting": "fibrinogen", "result": 8, "unit": "min"}, {"measurement": "elimination from the blood", "setting": "[1]", "result": "rapidly eliminated"}]}
